Source: patent US12187740B2, “Polymorphic forms of bictegravir potassium” (HONOUR LAB LIMITED, priority 2021, dated 2025)

Assay: Storage stability test of crystalline Form HN1 (PXRD, HPLC purity, Karl Fischer water content)
Type: physicochemical
Set-up: Water: unit not given here
Settings: for Purity: HPLC; for Water: Karl Fischer
Experimental: X-ray powder diffraction spectrum was measured on a BRUKER axs D8 advance X-ray powder diffractometer having a copper-Ka radiation. Approximately 1 gm of sample was gently flattered on a sample holder and scanned from 2 to 50 degrees two-theta, at 0.02 degrees two theta per step and a step time of 10.8 seconds. The sample was simply placed on the sample holder. The sample was rotated at 30 rpm at a voltage 40 KV and current […].
In another aspect of the present invention Bictegravir potassium crystalline Form HN1 is stable at 5±3° C. and 25±2° C./60±5% RH (Relative humidity) and has the following stability data:
The stability of samples was tested by PXRD, HPLC and water content was measured by Karl Fischer method.

[1] = storage 25 ± 2° C./RH 60 ± 5%, 1st month
[2] = storage 25 ± 2° C./RH 60 ± 5%, 3rd month
[3] = storage 25 ± 2° C./RH 60 ± 5%, 6th month
[4] = storage 25 ± 2° C./RH 60 ± 5%, Initial
[5] = at 5±3° C. and 25±2° C./60±5% RH

Question: With `O=C(NCc1c(F)cc(F)cc1F)c1cn2c(c([O-])c1=O)C(=O)N1[C@H]3CC[C@H](C3)O[C@@H]1C2.[K+]` [Form HN1, Bictegravir potassium] as the compound, how does the Purity (storage 5 ± 3° C., 1st month) read?
Answer: 99.87

Question: And the Purity (storage 5 ± 3° C., 3rd month)?
Answer: 99.81

Question: And the Purity (storage 5 ± 3° C., 6th month)?
Answer: 99.81

Question: And the Purity (storage 5 ± 3° C., Initial)?
Answer: 99.88

Question: What about the Purity [1] of the same compound?
Answer: 99.87

Question: What about the Purity [2] of the same compound?
Answer: 99.80

Question: What about the Purity [3] of the same compound?
Answer: 99.81

Question: What about the Purity [4] of the same compound?
Answer: 99.88

Question: And the Water (storage 5 ± 3° C., 1st month)?
Answer: 2.8

Question: What about the Water (storage 5 ± 3° C., 3rd month) of the same compound?
Answer: 2.8

Question: And the Water (storage 5 ± 3° C., 6th month)?
Answer: 2.8

Question: And the Water (storage 5 ± 3° C., Initial)?
Answer: 2.2

Question: And the Water [1]?
Answer: 2.8

Question: And the Water [2]?
Answer: 2.9

Question: And the Water [3]?
Answer: 2.8

Question: What about the Water [4] of the same compound?
Answer: 2.2

Question: What about the “change in PXRD pattern after storage” value [5] of the same compound?
Answer: no change

Question: What about the “change in water content after storage” value [5] of the same compound?
Answer: no change

Question: What about the “decrease in purity after storage” value [5] of the same compound?
Answer: no significant decrease

Question: And the “stability on storage (overall)” value [5]?
Answer: physically and chemically stable

Question: And the PXRD (storage 5 ± 3° C., 1st month)?
Answer: Form HN1

Question: And the PXRD (storage 5 ± 3° C., 3rd month)?
Answer: Form HN1

Question: What about the PXRD (storage 5 ± 3° C., 6th month) of the same compound?
Answer: Form HN1

Question: What about the PXRD (storage 5 ± 3° C., Initial) of the same compound?
Answer: Form HN1

Question: What about the PXRD [1] of the same compound?
Answer: Form HN1

Question: And the PXRD [2]?
Answer: Form HN1

Question: And the PXRD [3]?
Answer: Form HN1

Question: And the PXRD [4]?
Answer: Form HN1
